According to ChEMBL document CHEMBL4052601, “Glycybridins A-K, Bioactive Phenolic Compounds from Glycyrrhiza glabra” (J Nat Prod, 2017):

Experiments:
[1] = molecular target: T1, Tyrosine-protein phosphatase non-receptor type 1 (Homo sapiens) (UniProt P18031); settings: at 10 µM
T1 sequence (whole entry): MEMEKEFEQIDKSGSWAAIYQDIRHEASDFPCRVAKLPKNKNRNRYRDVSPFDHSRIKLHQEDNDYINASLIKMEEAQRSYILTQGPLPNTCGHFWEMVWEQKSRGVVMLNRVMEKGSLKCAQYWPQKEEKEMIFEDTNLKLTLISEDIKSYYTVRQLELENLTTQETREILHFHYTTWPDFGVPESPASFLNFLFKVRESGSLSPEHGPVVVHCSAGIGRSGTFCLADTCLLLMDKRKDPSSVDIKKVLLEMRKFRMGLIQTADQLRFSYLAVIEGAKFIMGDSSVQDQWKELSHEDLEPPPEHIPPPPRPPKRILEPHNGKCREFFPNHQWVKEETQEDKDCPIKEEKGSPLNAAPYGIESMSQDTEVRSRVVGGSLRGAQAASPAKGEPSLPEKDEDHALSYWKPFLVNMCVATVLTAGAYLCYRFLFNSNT
Description: Inhibition of recombinant human PTP1B using pNPP as substrate at 10 uM after 30 mins relative to control

[2] = tested on: HepG2; experiment: Antiproliferative activity against human HepG2 cells at 10 uM after 24 hrs by MTS assay relative to control; type: functional; settings: HepG2, 24 h
[3] = tested on: Homo sapiens; experiment: Inhibition of LPS-induced NF-kappaB (unknown origin) transactivation expressed in human SW480 cells at 10 uM administered 1 hr after LPS stimulation measured after 6 hrs by luciferase reporter gene assay relative to control; type: cell-based
[4] = molecular target: T2, Tyrosinase (Homo sapiens) (UniProt P14679); settings: at 10 µM;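 also: tyrosinase of unspecified origin acting on L-tyrosine, compound preincubated with enzyme for 15 min before adding substrate, inhibition expressed versus control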
T2 sequence (whole entry): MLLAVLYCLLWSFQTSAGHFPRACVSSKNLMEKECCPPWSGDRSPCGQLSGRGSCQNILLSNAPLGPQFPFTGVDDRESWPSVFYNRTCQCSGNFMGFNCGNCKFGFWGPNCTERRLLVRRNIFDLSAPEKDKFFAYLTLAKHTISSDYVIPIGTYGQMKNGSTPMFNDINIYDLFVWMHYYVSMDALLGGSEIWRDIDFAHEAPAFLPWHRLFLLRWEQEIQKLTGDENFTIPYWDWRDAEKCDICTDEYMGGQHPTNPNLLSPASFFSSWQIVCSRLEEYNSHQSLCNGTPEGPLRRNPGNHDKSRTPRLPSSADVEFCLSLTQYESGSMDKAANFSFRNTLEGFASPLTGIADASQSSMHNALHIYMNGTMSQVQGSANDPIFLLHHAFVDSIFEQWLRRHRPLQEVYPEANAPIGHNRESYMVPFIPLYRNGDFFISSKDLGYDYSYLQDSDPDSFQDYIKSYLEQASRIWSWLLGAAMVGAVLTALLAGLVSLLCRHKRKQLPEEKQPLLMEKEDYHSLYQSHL
Description: Inhibition of tyrosinase (unknown origin) using L-tyrosine as substrate at 10 uM preincubated for 15 mins followed by substrate addition relative to control

[5] = tested on: RAW264.7; experiment: Antiinflammatory activity against mouse RAW264.7 cells assessed as inhibition of LPS-induced nitric oxide production at 10 uM after 24 hrs by Griess assay relative to control; type: functional; settings: RAW264.7, 24 h
[6] = tested on: SW480; experiment: Antiproliferative activity against human SW480 cells at 10 uM after 24 hrs by MTS assay relative to control; type: functional; settings: SW480, 24 h
[7] = tested on: MCF7; experiment: Antiproliferative activity against human MCF7 cells at 10 uM after 24 hrs by MTS assay relative to control; type: functional; settings: MCF7, 24 h
[8] = tested on: A549; experiment: Antiproliferative activity against human A549 cells at 10 uM after 24 hrs by MTS assay relative to control; type: functional; settings: A549, 24 h
[9] = molecular target: T1, Tyrosine-protein phosphatase non-receptor type 1 (Homo sapiens); experiment: (§1) Inhibition of recombinant human PTP1B using pNPP as substrate after 30 mins
[10] = molecular target: T3, Tyrosine-protein phosphatase non-receptor type 1 (Homo sapiens, UniProt P18031); experiment: as §1
T3 sequence (P18031 whole entry): T1 sequence (whole entry)

Structure (SMILES) | inhibition [1] [%] | inhibition at 10 µM [2] [%] | inhibition [3] [%] | inhibition [4] [%] | inhibition at 10 µM [5] [%] | inhibition at 10 µM [6] [%] | inhibition at 10 µM [7] [%] | inhibition at 10 µM [8] [%] | inhibition [9] | IC50 [10] [µM]
CC(C)=CCc1c(O)ccc2c1O[C@H](c1ccc3c(c1)C=CC(C)(C)O3)CC2=O | 71 | 76.5 | 44.7 | 3.1 | 0 | 34.8 | 71.2 | 0 | Dose-dependent effect | 5 to 7.9
CC(C)=CCc1cc([C@@H]2CC(=O)c3ccc4c(c3O2)C=CC(C)(C)O4)ccc1O [SHINFLAVANONE] | 62.6 | 16.9 | 15.5 | 3.2 | 11.3 | 25 | 36.5 | 5.1 | Dose-dependent effect | 5 to 7.9
COc1ccc([C@@H]2COc3c(ccc4c3C=CC(C)(C)O4)C2)c(O)c1O | 22.4 | 49.6 | 22.1 | 18.4 | 17.3 | 12.9 | 23.3 | 30.2 |  | 
CC1(C)C=Cc2cc(C[C@@H](O)C(=O)c3ccc(O)cc3O)ccc2O1 | 0.2 | 12.3 | 0 | 1 | 9.3 | 1.9 | 19.3 | 6.4 |  | 
CC(C)=CCc1cc([C@@H]2CC(=O)c3ccc(O)c(CC=C(C)C)c3O2)ccc1O [GLABROL] | 65.1 | 51.3 | 28.2 | 2.3 | 14.7 | 13.6 | 48 | 3.2 | Dose-dependent effect | 5 to 7.9
CC(C)=CCc1c(O)ccc([C@@H]2COc3c(ccc(O)c3CC=C(C)C)C2)c1O [KANZONOL X] | 15.7 | 14.9 | 32.9 | 7.9 | 15.7 | 74.4 | 95.9 | 81.6 |  | 
CC(C)=CCc1cc([C@@H]2CC(=O)c3ccc(O)cc3O2)ccc1O [ABYSSINONE II] | 4.2 | 44.2 | 56.6 | 7.8 | 10.5 | 0 | 42.3 | 0 |  | 
CC(C)=CCc1cc(/C=C/C(=O)c2ccc3c(c2O)C=CC(C)(C)O3)ccc1O | 84.5 | 10.6 | 3.4 | 0 | 7.2 | 4.9 | 15.6 | 2 | Dose-dependent effect | 5 to 7.9
CC(C)=CCc1cc(C[C@@H](O)C(=O)c2cc(CC=C(C)C)c(O)cc2O)ccc1O | 27 | 5.8 | 24.3 | 8.3 | 0 | 24.6 | 42.1 | 46.1 |  | 
CC(C)=CCc1cc(C[C@@H](O)C(=O)c2ccc(O)cc2O)ccc1O | 0.2 | 7.2 | 23 | 10.3 | 7.1 | 4.2 | 29.5 | 6.1 |  | 
CC(C)=CCc1cc(/C=C/C(=O)c2ccc(O)c(CC=C(C)C)c2O)ccc1O [KANZONOL C] | 75.8 | 31.7 | 0 | 0 | 12.8 | 35.6 | 55.8 | 58 | Dose-dependent effect | 5 to 7.9
CC1(C)C=Cc2c(ccc3cc(-c4ccc(O)cc4O)c(=O)oc23)O1 [KANZONOL W] | 16.2 | 32.7 | 4.5 | 7.6 | 18.9 | 0 | 47.3 | 3.7 |  | 
CC1(C)C=Cc2c(ccc([C@@H]3COc4c(ccc5c4C=CC(C)(C)O5)C3)c2O)O1 [HISPAGLABRIDIN B] | 42 | 45.9 | 0 | 0 | 10.5 | 47.9 | 38.3 | 34.3 |  | 
CC1(C)C=Cc2c(ccc3c(=O)c(Oc4ccc(O)cc4O)coc23)O1 | 12.8 | 29.9 | 18.1 | 2.4 | 6.3 | 7.1 | 2.6 | 0 |  | 
O=C1C[C@@H](c2ccc(O)cc2)Oc2cc(O)ccc21 [LIQUIRTIGENIN] | 9.8 | 7 | 0 | 4.6 | 2.8 | 7.5 | 7.7 | 0 |  | 
COc1ccc(C2(O)COc3c(ccc(O)c3CC=C(C)C)C2=O)c(O)c1 (centres undefined) | 10.1 | 1.6 | 13.7 | 13.6 | 5.5 | 4.2 | 2.8 | 39.1 |  | 
CC1(C)C=Cc2cc([C@@H]3CC(=O)c4ccc5c(c4O3)C=CC(C)(C)O5)ccc2O1 [XAMBIOONA] | 76.9 | 0 | 0 | 0 | 6.9 | 7.9 | 0 | 10.9 |  | 
CC1(C)C=Cc2c(ccc3cc(-c4ccc(O)cc4O)oc23)O1 | 73.1 | 12.3 | 17 | 66.9 | 14.2 | 27.6 | 20.4 | 0 |  | 
CC1(C)C=Cc2cc([C@@H]3CC(=O)c4ccc(O)cc4O3)ccc2O1 [ABYSSINONE I] | 10.1 | 33.9 | 23.1 | 2.9 | 0 | 17.4 | 13.8 | 0 |  | 
CC1(C)C=Cc2c(cc(O)c3c(=O)c(-c4ccc(O)cc4O)coc23)O1 | 57.6 | 12.7 | 0 | 28.7 | 5.6 | 29.6 | 12.7 | 4.3 |  | 
COc1ccc2c(c1)O[C@H]1c3ccc(O)c(CC=C(C)C)c3OC[C@@H]21 [LICOAGROCARPIN] | 4.9 | 8.3 | 0 | 0 | 16.7 | 18.2 | 52.9 | 37.3 |  | 
CC1(C)C=Cc2c(cc(O)c3c(=O)c(-c4ccc(O)cc4)coc23)O1 [DERRONE] | 21 | 23.7 | 30.8 | 11 | 0 | 0 | 13.6 | 0 |  | 
CC1(C)C=Cc2cc3c(cc2O1)OCC(c1ccc(O)c2c1OC(C)(C)C=C2)=C3 | 95.3 | 0 | 0 | 1.3 | 2.6 | 24.3 | 26.6 | 0.7 |  | 
